Test results reported in patent US6737383B1, “Herbicidal oxadiazolidines” (priority 1999, dated 2004).

Tests used:
cocklebur = assay: Test B pre/postemergence cocklebur; format: in vivo, Xanthium strumarium; conditions: for Cocklebur plant response rating: scale of 0 to 10 where 0 is no effect and 10 is complete control
Outline: (§1)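 Test chemicals in a non-phytotoxic solvent mixture with surfactant were sprayed preemergence onto planted seeds and postemergence onto plants 2 to 18 cm tall (1- to 4-leaf stage). After twelve to sixteen days in a greenhouse, injury was visually rated against untreated controls from 0 (no effect) to 10 (complete control).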

pigweed = assay: Test B pre/postemergence pigweed; format: in vivo, Amaranthus retroflexus; conditions: for Redroot pigweed plant response rating: scale of 0 to 10 where 0 is no effect and 10 is complete control
Outline: as §1

sugar beet = assay: Test B pre/postemergence sugar beet; format: in vivo, Beta vulgaris; conditions: for Sugarbeets plant response rating: scale of 0 to 10 where 0 is no effect and 10 is complete control
Outline: as §1

bamyardgrass = assay: Test B flood test barnyardgrass; format: in vivo, Echinochloa crus-galli
Outline: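 Flood test on plants grown to the 2-leaf stage; treated plants kept in greenhouse twelve to sixteen days, then visually rated against controls on a 0 (no effect) to 10 (complete control) scale.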

winter wheat [1] = assay: Test E winter wheat; format: in vivo, Triticum aestivum; conditions: Postemergence, 0 to 100 scale, 0 is no effect, 100 is complete control
Outline: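 Greenhouse test: for postemergence, foliar application at 1- to 4-leaf stage; compound in non-phytotoxic solvent with surfactant. Rating is visual, relative to untreated controls, about 21 to 28 days after treatment.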

blackgrass = assay: Test E blackgrass; format: in vivo, Alopecurus myosuroides; conditions: Preemergence
green foxtail = assay: Test E green foxtail; format: in vivo, Setaria viridis; conditions: Preemergence
Italian ryegrass = assay: Test E Italian ryegrass; format: in vivo, Lolium multiflorum; conditions: Preemergence
winter wheat [2] = assay: Test E winter wheat; format: in vivo, Triticum aestivum; conditions: Preemergence
wild oat = assay: Test E wild oat; format: in vivo, Avena fatua; conditions: Preemergence
winter barley = assay: Test E winter barley; format: in vivo, Hordeum vulgare; conditions: Preemergence
[3] = Postemergence, Rate 125 g/ha, scale 0 to 10, 0 is no effect, 10 is complete control
[4] = Postemergence, Rate 250 g/ha, scale 0 to 10, 0 is no effect, 10 is complete control
[5] = Rate 500 g/ha, Postemergence, scale 0 to 10, 0 no effect, 10 complete control
[6] = Preemergence, Rate 62 g/ha, scale 0 to 10 (0 no effect, 10 complete control)
[7] = Rate 62 g/ha, flood test species, Pre-emergence, visual evaluation after twelve to sixteen days
[8] = Rate 250 g/ha, Pre-emergence, flood-test species, scale 0 to 10, 0 is no effect, 10 is complete control
[9] = Rate 500 g/ha, Pre-emergence, flood test species, scale 0 to 10 (0 no effect, 10 complete control)
[10] = Rate 125 g/ha, 0 to 100 scale (0 no effect, 100 complete control)
[11] = Rate 500 g/ha, 0 to 100 scale (0 no effect, 100 complete control)
[12] = Rate 250 g/ha, 0 to 100 scale, 0 no effect, 100 complete control

CC1CC1n1c(=O)on(C(=O)N(c2ccccc2)C(C)C)c1=O (stereo not shown) [Compound 370]
Plant response rating, Cocklebur (cocklebur; [3]): 0
Plant response rating, Cocklebur (cocklebur; [4]): 2
Cocklebur plant response rating (0 to 10 scale) (cocklebur; Preemergence, Rate 125 g/ha): 0
Cocklebur plant response rating (cocklebur; Preemergence, Rate 250 g/ha): 0
Cocklebur plant response rating (cocklebur; Preemergence, Rate 500 g/ha): 10
Cocklebur plant response rating (cocklebur; Rate 62 g/ha, Postemergence): 0
Plant response rating, Cocklebur (cocklebur; [5]): 3
Plant response rating, Redroot pigweed (pigweed; [3]): 0
Plant response rating, Redroot pigweed (pigweed; [4]): 0
Plant response rating, Redroot pigweed (pigweed; [6]): 5
Redroot pigweed plant response rating (0 to 10 scale) (pigweed; Preemergence, Rate 125 g/ha): 7
Redroot pigweed plant response rating (pigweed; Preemergence, Rate 250 g/ha): 10
Redroot pigweed plant response rating (pigweed; Preemergence, Rate 500 g/ha): 10
Redroot pigweed plant response rating (pigweed; Rate 62 g/ha, Postemergence): 0
Plant response rating, Redroot pigweed (pigweed; [5]): 3
Plant response rating, Sugarbeets (sugar beet; [3]): 0
Plant response rating, Sugarbeets (sugar beet; [4]): 0
Plant response rating, Sugarbeets (sugar beet; [6]): 2
Sugarbeets plant response rating (0 to 10 scale) (sugar beet; Preemergence, Rate 125 g/ha): 3
Sugarbeets plant response rating (sugar beet; Preemergence, Rate 250 g/ha): 5
Sugarbeets plant response rating (sugar beet; Rate 62 g/ha, Postemergence): 0
Plant response rating, Sugarbeets (sugar beet; [5]): 0
Plant response rating, Barnyardgrass (bamyardgrass; Postemergence (flood test), Rate 125 g/ha, scale 0 to 10, 0 is no effect, 10 is complete control): 0
Barnyardgrass plant response rating (bamyardgrass; Rate 62 g/ha, Postemergence (flood test species), scale of 0 to 10 where 0 is no effect and 10 is complete control): 0
Plant response rating, Barnyardgrass (0 to 10 scale, 0 is no effect, 10 is complete control) (bamyardgrass; [7]): 0
Barnyardgrass plant response rating (bamyardgrass; Rate 125 g/ha, Pre-emergence, flood test species, scale 0 to 10 where 0 is no effect and 10 is complete control): 0
Barnyardgrass plant response rating (bamyardgrass; [8]): 0
Plant response rating, Barnyardgrass (bamyardgrass; Rate 500 g/ha, listed under Postemergence (flood test species), scale 0 to 10, 0 no effect, 10 complete control): 2
Barnyardgrass plant response rating (bamyardgrass; [9]): 0
Plant response rating, Barnyardgrass (bamyardgrass; flood test species, listed under Postemergence, Rate 250 g/ha, scale 0 to 10, 0 is no effect, 10 is complete control): 0
Plant response rating, Wheat (winter) (winter wheat [1]; Rate 125 g/ha): 70
Plant response rating, Wheat (winter) (winter wheat [1]; Rate 250 g/ha): 80
Plant response rating, Wheat (winter) (winter wheat [1]; Rate 500 g/ha): 85
Plant response rating, Blackgrass (blackgrass; [10]): 50
Plant response rating, Blackgrass (blackgrass; Rate 250 g/ha, 0 to 100 scale): 70
Plant response rating, Blackgrass (blackgrass; [11]): 100
Plant response rating, Green foxtail (green foxtail; [10]): 70
Plant response rating, Green foxtail (green foxtail; Rate 250 g/ha, 0 to 100 scale): 100
Plant response rating, Green foxtail (green foxtail; [11]): 100
Plant response rating, I. Ryegrass (Italian ryegrass; [10]): 55
Plant response rating, I. Ryegrass (Italian ryegrass; Rate 250 g/ha, 0 to 100 scale): 85
Plant response rating, I. Ryegrass (Italian ryegrass; [11]): 90
Plant response rating, Wheat (winter) (winter wheat [2]; [10]): 50
Plant response rating, Wheat (winter) (winter wheat [2]; Rate 250 g/ha, 0 to 100 scale): 40
Plant response rating, Wheat (winter) (winter wheat [2]; [11]): 60
Plant response rating, Wild oat (wild oat; [10]): 60
Plant response rating, Wild oat (wild oat; Rate 250 g/ha, 0 to 100 scale): 75
Plant response rating, Wild oat (wild oat; [11]): 90
Plant response rating, Barley (winter) (winter barley; [10]): 60
Plant response rating, Barley (winter) (winter barley; [12]): 60
Plant response rating, Barley (winter) (winter barley; [11]): 70

CC1CC1n1c(=O)on(C(=O)N(c2ccc(F)cc2)C(C)C)c1=O (stereo not shown) [Compound 371]
Plant response rating, Cocklebur (cocklebur; [3]): 0
Plant response rating, Cocklebur (cocklebur; [4]): 0
Plant response rating, Cocklebur (cocklebur; [6]): 0
Cocklebur plant response rating (0 to 10 scale) (cocklebur; Preemergence, Rate 125 g/ha): 0
Cocklebur plant response rating (cocklebur; Preemergence, Rate 250 g/ha): 0
Cocklebur plant response rating (cocklebur; Preemergence, Rate 500 g/ha): 0
Cocklebur plant response rating (cocklebur; Rate 62 g/ha, Postemergence): 0
Plant response rating, Cocklebur (cocklebur; [5]): 0
Plant response rating, Redroot pigweed (pigweed; [3]): 0
Plant response rating, Redroot pigweed (pigweed; [4]): 2
Plant response rating, Redroot pigweed (pigweed; [6]): 4
Redroot pigweed plant response rating (0 to 10 scale) (pigweed; Preemergence, Rate 125 g/ha): 10
Redroot pigweed plant response rating (pigweed; Preemergence, Rate 250 g/ha): 10
Redroot pigweed plant response rating (pigweed; Preemergence, Rate 500 g/ha): 10
Redroot pigweed plant response rating (pigweed; Rate 62 g/ha, Postemergence): 0
Plant response rating, Redroot pigweed (pigweed; [5]): 5
Plant response rating, Sugarbeets (sugar beet; [3]): 0
Plant response rating, Sugarbeets (sugar beet; [4]): 0
Plant response rating, Sugarbeets (sugar beet; [6]): 0
Sugarbeets plant response rating (0 to 10 scale) (sugar beet; Preemergence, Rate 125 g/ha): 6
Sugarbeets plant response rating (sugar beet; Preemergence, Rate 250 g/ha): 6
Sugarbeets plant response rating (sugar beet; Preemergence, Rate 500 g/ha): 10
Sugarbeets plant response rating (sugar beet; Rate 62 g/ha, Postemergence): 0
Plant response rating, Sugarbeets (sugar beet; [5]): 0
Plant response rating, Barnyardgrass (0 to 10 scale, 0 is no effect, 10 is complete control) (bamyardgrass; [7]): 0
Barnyardgrass plant response rating (0 to 10 scale, 0 is no effect, 10 is complete control) (bamyardgrass; Rate 125 g/ha, under heading Pre-emergence, flood test species, visual evaluation after twelve to sixteen days): 0
Barnyardgrass plant response rating (bamyardgrass; [8]): 0
Barnyardgrass plant response rating (bamyardgrass; [9]): 7
Plant response rating, Wheat (winter) (winter wheat [1]; Rate 125 g/ha): 70
Plant response rating, Wheat (winter) (winter wheat [1]; Rate 250 g/ha): 65
Plant response rating, Wheat (winter) (winter wheat [1]; Rate 500 g/ha): 80
Plant response rating, Blackgrass (blackgrass; [10]): 85
Plant response rating, Blackgrass (blackgrass; Rate 250 g/ha, 0 to 100 scale): 100
Plant response rating, Blackgrass (blackgrass; [11]): 100
Plant response rating, Green foxtail (green foxtail; [10]): 35
Plant response rating, Green foxtail (green foxtail; Rate 250 g/ha, 0 to 100 scale): 60
Plant response rating, Green foxtail (green foxtail; [11]): 85
Plant response rating, I. Ryegrass (Italian ryegrass; [10]): 60
Plant response rating, I. Ryegrass (Italian ryegrass; Rate 250 g/ha, 0 to 100 scale): 70
Plant response rating, I. Ryegrass (Italian ryegrass; [11]): 90
Plant response rating, Wheat (winter) (winter wheat [2]; [10]): 60
Plant response rating, Wheat (winter) (winter wheat [2]; Rate 250 g/ha, 0 to 100 scale): 60
Plant response rating, Wheat (winter) (winter wheat [2]; [11]): 65
Plant response rating, Wild oat (wild oat; [10]): 70
Plant response rating, Wild oat (wild oat; Rate 250 g/ha, 0 to 100 scale): 85
Plant response rating, Wild oat (wild oat; [11]): 90
Plant response rating, Barley (winter) (winter barley; [10]): 40
Plant response rating, Barley (winter) (winter barley; [12]): 60
Plant response rating, Barley (winter) (winter barley; [11]): 70
